In paper PMC2773443 (Biochemistry, 2009):
Each block holds one molecule with its values, some of them ahead of it.

Tests used:
[1] = target: T1, Bh0493, uronate isomerase from Bacillus halodurans (Halalkalibacterium halodurans, UniProt Q9KFI6); test: X-ray crystal structure, […] Å; assay type: binding; conditions: Zn2+, active site; 40 mM ligand; pH 6.0
T1 sequence (Q9KFI6 1-427): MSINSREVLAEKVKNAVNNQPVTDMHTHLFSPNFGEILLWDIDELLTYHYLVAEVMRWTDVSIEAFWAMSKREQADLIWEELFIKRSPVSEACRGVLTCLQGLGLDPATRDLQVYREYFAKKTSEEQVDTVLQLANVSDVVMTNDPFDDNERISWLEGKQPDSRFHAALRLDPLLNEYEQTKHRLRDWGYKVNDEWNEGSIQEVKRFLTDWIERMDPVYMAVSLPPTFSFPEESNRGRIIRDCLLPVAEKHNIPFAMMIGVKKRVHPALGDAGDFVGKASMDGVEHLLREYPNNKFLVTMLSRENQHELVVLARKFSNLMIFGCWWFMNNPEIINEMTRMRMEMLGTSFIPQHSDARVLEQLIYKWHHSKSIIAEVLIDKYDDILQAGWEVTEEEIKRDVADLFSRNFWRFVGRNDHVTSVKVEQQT

[2] = target: T1, Bh0493, uronate isomerase from Bacillus halodurans; test: X-ray crystal structure, […] Å; assay type: binding; conditions: Zn2+, active site; 40 mM ligand; pH 8.5 (form 1), pH 6.0 (form 2)
[3] = target: T1, Bh0493, uronate isomerase from Bacillus halodurans; test: inhibition kinetics, slope inhibition constant; assay type: biochemical
[4] = target: T2, uronate isomerase (URI) from E. coli (Escherichia coli, UniProt P0A8G3); test: inhibition kinetics, slope inhibition constant; assay type: biochemical
T2 sequence (P0A8G3 1-470): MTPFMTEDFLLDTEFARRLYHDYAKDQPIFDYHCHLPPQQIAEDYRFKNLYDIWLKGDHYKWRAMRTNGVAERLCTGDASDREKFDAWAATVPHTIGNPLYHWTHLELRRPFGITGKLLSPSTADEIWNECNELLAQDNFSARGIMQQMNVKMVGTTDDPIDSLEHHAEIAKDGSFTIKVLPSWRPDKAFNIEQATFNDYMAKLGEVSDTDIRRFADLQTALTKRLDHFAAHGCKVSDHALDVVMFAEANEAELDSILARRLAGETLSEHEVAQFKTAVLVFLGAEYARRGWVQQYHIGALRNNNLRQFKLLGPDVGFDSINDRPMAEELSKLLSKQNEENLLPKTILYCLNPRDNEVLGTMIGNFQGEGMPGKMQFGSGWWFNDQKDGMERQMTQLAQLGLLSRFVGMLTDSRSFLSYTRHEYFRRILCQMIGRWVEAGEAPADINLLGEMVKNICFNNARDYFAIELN

Structure (SMILES): O=C(O)[C@H]1OC(O)[C@H](O)[C@@H](O)[C@@H]1O (stereo partly drawn) [I, D-glucuronate]
X-ray crystal structure, 2.1 Å [1]: In the complex with D-glucuronate, the substrate is bound in the open chain configuration.

Structure (SMILES): O=C(O)[C@@H](O)C(O)[C@H](O)C(=O)O [III, D-arabinarate]
X-ray crystal structure, 2.2 Å (two crystal forms) [2]: two inhibitors that mimic the proposed cis-enediol(ate) intermediate, D-arabinarate (III) and its hydroxamate derivative (II)

Ki [3]: 24 ± 2 µM | Ki [4]: 45 ± 4 µM
Structure (SMILES): O=C(O)[C@H]1OC[C@H](O)[C@@H](O)[C@@H]1O [IV, 2,6-Anhydro-L-gulonic acid]
